The test system of series [1] is MH-22A murine hepatoma syngeneic model. Put plainly: In vivo efficacy study in MH-22A model. On the set-up: species or system mouse. How it is done: Tumor volumes were measured twice weekly in two dimensions using a caliper, and the volume was expressed in mm^3 using the formula: Tumor Volume(mm^3)=0.5a×b^2 where a and b are the long and short diameters of the tumor, respectively.
Relative tumor volume (RTV) was calculated using the following formula: RTV=Vt/V1 Where V1 and Vt are the average tumor volumes on the first day of treatment (day 1) and the average tumor volumes on a certain time point (day t).
Synergy score was calculated using the following formula (Clarke R, Breast Cancer Research & Treatment, 1997, 46(2-3):255-278): Synergy score=((A/C)×(B/C))/(AB/C); A: response to treatment A; B: response to treatment B; C: response to vehicle control; AB: combination of treatment A and B.
Standard NCI procedures were used to calculate tumor parameters. Percent tumor growth inhibition (% T/C) was calculated as the mean RTV of treated tumors (T) divided by the mean RTV of control tumors (C)×100%. The percentage T/C value is an indication of antitumor effectiveness: a value of T/C<42% is considered significant antitumor activity by the NCI. A T/C value <10% is considered to indicate highly significant antitumor activity, and is the level used by the NCI to justify a clinical trial if toxicity and certain other requirements are met (termed DN-2 level activity). A body weight loss nadir (mean of group) of greater than 20%, or greater than 20% of drug deaths are considered to indicate an excessively toxic dosage.
Each mouse was inoculated subcutaneously at the right flank region with MH-22A tumor cells (5×10^6) in 0.2 mL of PBS for tumor development. The treatments were initiated when the mean tumor size reached ˜65 mm^3. The test articles were administered to the tumor-bearing mice according to the regimen shown in the experimental design Table 3. The day of start dosing was defined as d1.

For series [2], the system named is MH-22A syngeneic tumor model. Put plainly: Efficacy in the TIL analysis study, MH-22A model (d7). The format is in vivo, mouse. The note with it: APG-115 10 mg/kg p.o. q2d; anti-PD-1 5 mg/kg i.p. biw; epacadostat 100 mg/kg p.o. bid; × 6 d. How it is done:
Each mouse was inoculated subcutaneously at the right flank region with MH-22A tumor cells (5×10^6) in 0.2 mL of PBS for tumor development. The treatments were started when the mean tumor size reached 60 mm^3. The test articles were administered to the tumor-bearing mice according to the regimen shown in the experimental design Table 6. The day of start dosing was defined as d1.
Mice bearing MH-22A murine hepatoma tumors were treated with various agent(s) under different regimens as indicated. Isotype control antibody was included in the control.

Series [3] can be described thus: Pharmacokinetic (PK) analysis in MH-22A tumor-bearing mice (LC/MS/MS). It is filed as in vivo, mouse. As to conditions: mouse; for concentration at 4 h: oral, 100 mg/kg. How it is done: The quantitative LC/MS/MS analysis was conducted using an Exion HPLC system (AB Sciex, Ontario, Canada) coupled to an API 5500 mass spectrometer (AB Sciex, Ontario, Canada) equipped with an API electrospray ionization (ESI) source. The Phenomenex Titank phenyl-Hexyl column (50 mm×2.1 mm, 5 μm particle size) was used to achieved HPLC separation. The injection volume was 2 μl and the flow rate was kept constantly at 0.5 ml/min. Chromatography was performed with mobile phase A, acetonitrile:water:formic (5:95:0.1, by volume) and B, acetonitrile:water:formic (95:5:0.1, by volume). The mass spectrometer was operated at ESI positive ion mode for APG-115 while ESI negative mode for epacadostat. The detection of the ions was performed in the multiple reaction monitoring (MRM) mode, monitoring the transition of m/z 642.0→246.1 and 271.1→172.0 for APG-115 and IS (tolbutamide) in positive mode, 435.9→338.8 and 269.2→169.2 for epacadostat and IS (tolbutamide) in negative mode, respectively. Compounds parameters, declustering potential (DP), collision energy (CE) were 51, 61 V, 80, 18 V for APG-115 and IS in positive mode, −61, −15 V and −90, −23.5 V for epacadostat and IS in negative mode, respectively.
Blood and tumor samples were collected from 5 mice/group in group-1, group-2, group-3 and group-5 4 hrs after the final dose on […]. Blood samples were collected from 5 mice/group in group-4, group-6, group-7 and group-8 4 hrs after the final dose on d29. Approximately 100 μl blood were collected in EDTA-2K tube and 50 μl plasma were collected for PK analysis. All samples were stored at −80° C. until analysis.
In efficacy study of Example 2.1, mice in vehicle, APG-115 10 mg/kg and 50 mg/kg, and epacadostat single-agent groups were euthanized on d15 as described above. To assess PK characteristics of APG-115 and epacadostat in this study, plasma and tissue samples were collected 4 h after the last dosing on d15.

[4] abbreviates: APG-115 10 mg/kg p.o. qd, anti-PD-1 10 mg/kg i.p. biw, epacadostat 100 mg/kg p.o. bid.

Like-named read-outs stand apart in the source and are kept apart here.

Consider one molecule from patent US12268665B2, “Combination of immunotherapies with MDM2 inhibitors” (ASCENTAGE PHARMA (SUZHOU) CO., LTD., priority 2018, dated 2025).

`NS(=O)(=O)NCCNc1nonc1C(=NO)Nc1ccc(F)c(Br)c1` [epacadostat, reference compound]: in series [1] (setting [4]), the “RTV (Mean ± SEM) d15” value is given as 49.1 ± 5.8 and the “T/C (%) d15” value was 128%. Further, the “Response rate (%) d15” value in series [1] (APG-115 10 mg/kg, anti-PD-1 10 mg/kg, epacadostat 100 mg/kg, n=10) worked out at 0%. For the same molecule, the “antitumor activity as single agents” value in series [1] (APG-115 10 and 50 mg/kg, epacadostat 100 mg/kg) is given as “did not exert antitumor activity”. In addition, in series [2], the “RTV (Mean) d7” value is recorded as 12.7 and the “T/C (%) d7” value is recorded as 82%. Besides, the “pharmacokinetic interaction with anti-PD-1 antibody” value in series [3] (in vivo) is listed as “no apparent pharmacokinetic interaction”. Also, in series [3] (plasma, 100 mg/kg daily oral, alone, read-out: plasma concentration of epacadostat), the concentration at 4 h amounted to 5890 ng/mL. Further, the concentration at 4 h in series [3] (plasma, 100 mg/kg daily oral, combined with anti-PD-1, read-out: plasma concentration of epacadostat) was found to be 8620 ng/mL. Besides, the concentration at 4 h in series [3] (tumor, 100 mg/kg dosed alone, read-out: epacadostat concentration in tumor) came to 9260 ng/g.
